Legend:
[1] = system: HGT-1 human gastric cancer cells; assay: Apoptosis by Hoechst 33342 staining in HGT-1 cells; format: cell-based; conditions: for apoptosis: HGT-1
Experimental: HGT-1 human gastric cancer cells were grown at 37° C. under a humidified atmosphere of 5% CO2 in DMEM (Dulbecco's modified Eagle's medium) (Lonza, Saint Beauzire, France), containing 4.5 g/L glucose and supplemented with 5% fetal bovine serum without antibiotics (Gibco-Invitrogen, Cergy Pontoise, France).
(§1) Apoptosis was determined by Hoechst 33342 (10 μg/ml in PBS) staining of the cells for 15 min at 37° C. and fluorescence microscopy analysis of 300 cells per condition, from replicate cultures.

HGT-1 cells [2] = assay: mRNA levels by quantitative real-time RT-PCR in HGT-1 cells; format: cell-based, human; conditions: 48 h
Experimental: Total RNA was isolated using Trizol (Invitrogen, Cergy-Pontoise, france) and the RNA samples were used for the first-strand cDNA synthesis with the High Capacity cDNA Reverse Transcription kit and random hexamer primers (Applied biosystems). Quantitative real-time RT-PCR was performed using the Power SYBR Green Kit (Applied biosystems) according to the manufacturer's instructions. mRNA levels were analyzed in duplicate, normalized against GAPDH or phospho-protein P0 as an internal control gene. The results are expressed as the relative gene expression using the ΔΔCt method (Livak and Schmittgen 2001). The primer sequences and reaction conditions will be provided upon request.

HGT-1 cells [3] = assay: Protein levels by western blotting in HGT-1 cells; format: cell-based, human
Experimental: (§2) The cells were harvested, washed in PBS and lysed in ripa buffer (50 mM Tris HCl pH7.4, 150 mM NaCl, 0.5% Sodium deoxycholate, 0.1% SDS, 1% NP40, 1 mM EDTA, 1 mM PMSF) containing protease inhibitor cocktail (Roche, Meylan, France) and phosphatase inhibitor (Active motif) for 10 min at 4° C. Sixty micrograms of proteins were boiled in Laemmli sample buffer (Bio-Rad) for 5 min, separated by SDS-PAGE using 12% or 15% polyacrylamide gels and blotted onto polyvinyl difluoride membranes (GE Healthcare). Non specific binding sites were blocked for 1 h at room temperature by 5% (wt/v) fat-free milk before overnight incubation at 4° C. with specific rabbit (or mouse for cyclin B1) anti-human antibodies: aurora kinase A and B, procaspase-3, PARP, Bcl-2, Bax and survivin (Cell Signaling Technology-Ozyme, Saint Quentin en Yvelines, France), p27, p21, Mcl-1, cyclin B1 (Santa Cruz biotechnology, Tebu-bio, le Perray en Yvelines, France), cyclin D1 (NeoMarkers, Thermo Fisher Scientific, Illkirch, France) or HSC70 (Abcam, Paris, France) as a loading control. Anti-phospho-ERK1/2 was a mouse monoclonal antibody against a synthetic phosphopeptide (residues around threonine 202 and […] of human p44 MAPK, Cell Signaling Technology, Ozyme, France). Polyclonal antibodies against ERK1 (rabbit, sc-94) or ERK2 (rabbit, sc-154) and phospho-MEK1/2 were from Santa Cruz Biotechnology (Tebu-bio). Rabbit anti-phospho-JNK (Cell Signaling, Saint-Quentin en Yvelines, France) and rabbit polyclonal antibody anti-P38 (Santa Cruz Biotechnology, Tebu-bio). Primary antibodies were detected with a horseradish peroxidase-conjugated IgGs (GE Healthcare, Orsay, France).

[4] = system: lovastatin-resistant HGT-1-derived cells; assay: Apoptosis in lovastatin-resistant HGT-1-derived cells; format: cell-based, human; conditions: data not shown
Experimental: as §1

[5] = system: docetaxel-resistant HGT-1 cells (D5)
Experimental: Selection of the docetaxel-resistant cell populations was performed with mass cultures grown in complete medium supplemented with 5 nM docetaxel. […] Cells were constantly grown in presence of 5 nM docetaxel, excepted for the cell passage that preceded the experiments that involved drug treatments. […]

D5 cells [6] = assay: Protein levels by western blotting in D5 cells; format: cell-based, human; conditions: 2.5 μM lovastatin, 72 h
Experimental: as §2, with “Polyclonal antibodies against ERK1 (rabbit, sc-94) or ERK2 (rabbit, sc-154) and phospho-MEK1/2 were from Santa Cruz Biotechnology (Tebu-bio). Rabbit anti-phospho-JNK (Cell Signaling, Saint-Quentin en Yvelines, France) and rabbit polyclonal antibody anti-P38 (Santa Cruz Biotechnology, Tebu-bio).” left out

D5 cells [7] = assay: p21 mRNA by RT-PCR in D5 cells; format: cell-based, human; conditions: data not shown
Experimental: Selection of the docetaxel-resistant cell populations was performed with mass cultures grown in complete medium supplemented with 5 nM docetaxel. […] Cells were constantly grown in presence of 5 nM docetaxel, excepted for the cell passage that preceded the experiments that involved drug treatments.

CC(=O)O[C@@]12CO[C@@H]1C[C@H](O)[C@@]1(C)C(=O)[C@H](O)C3=C(C)[C@@H](OC(=O)[C@H](O)[C@@H](NC(=O)OC(C)(C)C)c4ccccc4)C[C@@](O)([C@@H](OC(=O)c4ccccc4)[C@H]21)C3(C)C [docetaxel, Docetaxel]
apoptosis ([1]; 5 nM docetaxel, 48 h): 15%
apoptosis ([1]; 10 nM docetaxel, 48 h): 27%
p21 expression (HGT-1 cells [2]; 5 or 10 nM docetaxel): induced
aurora kinase B and survivin mRNA (HGT-1 cells [2]): weakly induced
phospho-MEK1/2, phospho-ERK1/2 and p38 MAP kinase levels (HGT-1 cells [3]): had no effect
phosphorylated jun kinase (JNK) (HGT-1 cells [3]): had no effect
Bax protein (HGT-1 cells [3]; 48 h): remained unchanged
Caspase-3 and PARP cleavage (HGT-1 cells [3]; 48 h): cleaved
Mcl-1 protein (HGT-1 cells [3]; 48 h): suppressed
cyclin B1, D1, aurora kinase A, B and survivin protein levels (HGT-1 cells [3]; 48 h): decrease in these proteins
survivin protein levels (HGT-1 cells [3]; 48 h): strongly induced
cyclin B1 protein (HGT-1 cells [3]; docetaxel, 48 h): slightly increased
apoptosis compared with HGT-1 parental cells [4]: higher level

CC[C@H](C)C(=O)O[C@H]1C[C@@H](C)C=C2C=C[C@H](C)[C@H](CC[C@@H]3C[C@@H](O)CC(=O)O3)[C@H]21 [lovastatin]
apoptosis ([1]; 12.5 μM lovastatin, 48 h): 35%
apoptosis ([1]; 2.5 or 5 μM lovastatin, 48 or 72 h): up to 32%
apoptosis ([5]; 2.5 or 5 μM lovastatin, 48 or 72 h, D5 cells): up to 55%
p27 expression (HGT-1 cells [2]; 12.5 μM lovastatin alone or with 5 or 10 nM docetaxel): slightly reduced
p21 mRNA induction (HGT-1 cells [2]; 12.5 μM lovastatin): up to 4 fold
LDL-R, HMG-CoA reductase, FPPS and FAS mRNA levels (HGT-1 cells [2]): induced
aurora kinase B and survivin mRNA (HGT-1 cells [2]): repressed
cyclin B1, cyclin D1 and aurora kinase A mRNA (HGT-1 cells [2]): reduced expression of all transcripts
phospho-MEK1/2, phospho-ERK1/2 and p38 MAP kinase levels (HGT-1 cells [3]): decreased
phosphorylated jun kinase (JNK) (HGT-1 cells [3]): induced
Bax protein (HGT-1 cells [3]; 48 h): slightly suppressed
Caspase-3 and PARP cleavage (HGT-1 cells [3]; 48 h): cleaved
Mcl-1 protein (HGT-1 cells [3]; 48 h): suppressed
cyclin B1, D1, aurora kinase A, B and survivin protein levels (HGT-1 cells [3]; 48 h): decrease in all proteins
over-expressed survivin and cyclin B1 proteins in D5 cells (D5 cells [6]): fully suppressed
p27 protein in D5 cells (D5 cells [6]): induced
induction of p21 mRNA in D5 cells compared with HGT-1 (D5 cells [7]): stronger

CC[C@]1(O)C[C@@H]2CN(CCc3c([nH]c4ccccc34)[C@@](C(=O)OC)(c3cc4c(cc3OC)N(C)[C@H]3[C@@](O)(C(=O)OC)[C@H](OC(C)=O)[C@]5(CC)C=CCN6CC[C@]43[C@@H]65)C2)C1 [vinblastine]
apoptosis ([1]; 1 nM vinblastine, 48 h): about 30%
vinblastine-induced apoptosis in D5 cells ([5]; 1 nM vinblastine, 48 h): resistant

Z-VAD-fmk
effect on docetaxel-induced cell death ([1]; HGT-1, with docetaxel): suppress cell death

— patent US9216165B2, “Combination of a statin and a taxane for the treatment of gastric cancer” (INSERM (Institut National de la Sante et de la Recherche …, priority 2011, dated 2015)
